Tests used:
Format in all cases: biochemical
[1] = Suture testing in ethanol, cyclohexane, isopropanol with 1% CaSt; conditions: for Endotoxin Detected: control suture 68.1 EU
Procedure: Similarly to the testing above, an absorbable suture of the same type, similarly contaminated, was exposed to CaSt in three solvents (ethanol, cyclohexane, isopropanol). The suture was then tested for LPS. […] In presence of CaSt 1% suspension (CaSt could be slightly soluble in the solvents), LPS activity decreased by 75-95%.
Sutures used were 27 inch long pieces of absorbable lactide-glycolide sutures. Endotoxin sources used were Stagnant Rain Water (SRW) and LRW (3980 EU/mL). 7 strands of suture were placed in tubing with endotoxin solution for 10 minutes at a time. The sutures were dried for 20 minutes and then placed in round bottom tubes. […] 1 suture was placed in each tube and vortexed in this solution for approximately 10 seconds. The sutures were removed and allowed to dry for 20 minutes and then placed in round bottom tubes. This was done for 6 sutures. 1 piece of suture, serving as the control, was not submerged in any solutions and placed in test tubes. 3 mL of LAL reagent water was added to each test tube, vortexed vigorously, and then placed in a hot water bath at 37° C. for 1 hour. They were then removed, vortexed vigorously, diluted, and tested on the MCS system.

[2] = Wound dressing (fibrin pad) testing in cyclohexane containing CaSt; conditions: dressing spiked with 8.9 EU, 15 minutes in 10 mL cyclohexane with 0.1 g CaSt
Procedure: A wound dressing containing dry fibrinogen and dry thrombin on an absorbable support was tested as follows. The pad was spiked with LPS and then exposed to cyclohexane containing CaSt to determine the effect on detectable LPS.
Three 1×2 inch pieces of the dressing were spiked with endotoxin resulting in 8.9 EU of LPS. The pieces were allowed to dry for 20 minutes, then placed into 50 mL polypropylene conical tubes. 7.5 mL of LAL reagent water+2.5 mL 0.25M tris buffer was added to Tube 1. 10 mL of cyclohexane with 0.1 g of CaSt was added to Tube 2. 10 mL of cyclohexane was added to Tube 3. The tubes were closed and then placed on the bottle roller rotator machine for 15 minutes so that the tube could continuously roll and the dressing was constantly in contact with liquid.
Tube 1 solution was then diluted and tested for endotoxin on the MCS system. The fibrin pad pieces from Tube 2 and Tube 3 were removed and placed in new tubes and extracted in 7.5 mL of LAL reagent water+2.5 mL 0.25M tris buffer. The solutions were then tested on the MCS system for endotoxin (LPS).

[3] = Testing of various sources of LPS with CaSt in water
Procedure: Therefore, for the methods described above, the activity of endotoxin was tested with various sources of endotoxin. Laboratory grown endotoxin is purified while natural endotoxin will be present with other substances such as proteins and phospholipids.
The laboratory grown endotoxin used in this experiment was supplied by Charles River Laboratories.
Natural airborne endotoxin was captured using an electret filter. Electret filters are produced from dielectric polymer fibers that develop an electrical charge when air flows past them, capturing the endotoxin along with other particles. The endotoxin was extracted from the filter by placing the filter in endotoxin free water for an extended period of time.
Two other natural sources of endotoxin were obtained from water samples in the surrounding environment. One source was a pool of sitting rain water and other being a small puddle on the side of the Raritan River. The sitting rain water (SRW) was purified via chlorination and 0.2 μm filter. The Raritan River Water (RRW) was not altered in anyway. The same testing procedure was conducted for all sources of endotoxin.

[4] = Charles River Standard, 8330 EU spiked, 0.05 g Calcium Stearate
[5] = Charles River Standard, 8330 EU spiked, 0.15 g Calcium Stearate
[6] = Charles River Standard, 8330 EU spiked, 0.25 g Calcium Stearate
[7] = Dust Filter Extraction Water, 9280 EU spiked, 0.01 g Calcium Stearate
[8] = Dust Filter Extraction Water, 9280 EU spiked, 0.25 g Calcium Stearate
[9] = RRW endotoxin, 4340 EU spiked, 0.01 g Calcium Stearate
[10] = RRW endotoxin, 4340 EU spiked, 0.1 g Calcium Stearate
[11] = RRW endotoxin, 4340 EU spiked, 0.25 g Calcium Stearate
[12] = SRW endotoxin, 11100 EU spiked, 0.01 g Calcium Stearate

Calcium Stearate
LPS activity decreased by ([1]; CaSt 1% suspension in ethanol, cyclohexane, isopropanol): 75-95%
Change in Endotoxin Level ([1]; suture in Cyclohexane w/1% Calcium Stearate (0.0858 g) vs. control suture): −94.1%
Endotoxin Detected ([1]; suture in Cyclohexane w/1% Calcium Stearate (0.0858 g)): 4.02 EU
Change in Endotoxin Level ([1]; suture in Ethanol w/1% Calcium Stearate (0.0827 g) vs. control suture): −77.9%
Endotoxin Detected ([1]; suture in Ethanol w/1% Calcium Stearate (0.0827 g)): 15.06 EU
Change in Endotoxin Level ([1]; suture in Isopropanol w/1% Calcium Stearate (0.0841 g) vs. control suture): −75.6%
Endotoxin Detected ([1]; suture in Isopropanol w/1% Calcium Stearate (0.0841 g)): 16.59 EU
Endotoxin detected on Pad [2]: 1.8 EU
Percent Endotoxin detected as compared to Tube 1 [2]: 20.2%
Endotoxin detected on Pad ([2]; listed as CaSt): 2 EU
percent of endotoxin recovered ([3]; 0.1 grams of calcium stearate and higher, all sources of endotoxin): under 5%
Percent of Endotoxin Detected ([3]; Charles River Standard, 8330 EU spiked, 0.007 g Calcium Stearate): 48.0%
Percent of Endotoxin Detected ([3]; Charles River Standard, 8330 EU spiked, 0.018 g Calcium Stearate): 17.9%
Percent of Endotoxin Detected ([3]; Charles River Standard, 8330 EU spiked, 0.028 g Calcium Stearate): 2.8%
Endotoxin Detected [3, 4]: 190.5 EU
Percent of Endotoxin Detected [3, 4]: 2.3%
Endotoxin Detected [3, 5]: 86.5 EU
Percent of Endotoxin Detected [3, 5]: 1.0%
Endotoxin Detected [3, 6]: 38.5 EU
Percent of Endotoxin Detected [3, 6]: 0.5%
Endotoxin Detected [3, 7]: 3440 EU
Percent of Endotoxin Detected [3, 7]: 37.1%
Endotoxin Detected [3, 8]: 28.5 EU
Percent of Endotoxin Detected [3, 8]: 0.3%
Endotoxin Detected [3, 9]: 960 EU
Percent of Endotoxin Detected [3, 9]: 22.1%
Endotoxin Detected [3, 10]: 165 EU
Percent of Endotoxin Detected [3, 10]: 3.8%
Endotoxin Detected [3, 11]: 70 EU
Percent of Endotoxin Detected [3, 11]: 1.6%
Percent of Endotoxin Detected ([3]; RRW endotoxin, 4340 EU spiked, 0.35 g Calcium Stearate): 2.6%
Endotoxin Detected [3, 12]: 2780 EU
Percent of Endotoxin Detected [3, 12]: 25.0%
Percent of Endotoxin Detected ([3]; SRW endotoxin, 11100 EU spiked, 0.25 g Calcium Stearate): 1.0%

— US20180077929A1, “METHODS AND SYSTEMS FOR TREATING MEDICAL DEVICES AND FLUIDS” (priority 2016, published 2018)
